Measurements from patent publication US11407723B2, “Selective histone deacetylase inhibitors for the treatment of human disease” (Shuttle Pharmaceuticals, Inc., priority 2018, dated 2022).

How the values were obtained:
Type in all cases: biochemical
HDAC6 protein = molecular target: T1, HDAC6 protein (Homo sapiens, UniProt Q9UBN7); test: in vitro HDAC enzyme inhibition assay, HDAC6; conditions: for inhibitory activity against HDAC6 protein: FIGS. 1 and 2A-2C
T1 sequence (Q9UBN7 1-1215): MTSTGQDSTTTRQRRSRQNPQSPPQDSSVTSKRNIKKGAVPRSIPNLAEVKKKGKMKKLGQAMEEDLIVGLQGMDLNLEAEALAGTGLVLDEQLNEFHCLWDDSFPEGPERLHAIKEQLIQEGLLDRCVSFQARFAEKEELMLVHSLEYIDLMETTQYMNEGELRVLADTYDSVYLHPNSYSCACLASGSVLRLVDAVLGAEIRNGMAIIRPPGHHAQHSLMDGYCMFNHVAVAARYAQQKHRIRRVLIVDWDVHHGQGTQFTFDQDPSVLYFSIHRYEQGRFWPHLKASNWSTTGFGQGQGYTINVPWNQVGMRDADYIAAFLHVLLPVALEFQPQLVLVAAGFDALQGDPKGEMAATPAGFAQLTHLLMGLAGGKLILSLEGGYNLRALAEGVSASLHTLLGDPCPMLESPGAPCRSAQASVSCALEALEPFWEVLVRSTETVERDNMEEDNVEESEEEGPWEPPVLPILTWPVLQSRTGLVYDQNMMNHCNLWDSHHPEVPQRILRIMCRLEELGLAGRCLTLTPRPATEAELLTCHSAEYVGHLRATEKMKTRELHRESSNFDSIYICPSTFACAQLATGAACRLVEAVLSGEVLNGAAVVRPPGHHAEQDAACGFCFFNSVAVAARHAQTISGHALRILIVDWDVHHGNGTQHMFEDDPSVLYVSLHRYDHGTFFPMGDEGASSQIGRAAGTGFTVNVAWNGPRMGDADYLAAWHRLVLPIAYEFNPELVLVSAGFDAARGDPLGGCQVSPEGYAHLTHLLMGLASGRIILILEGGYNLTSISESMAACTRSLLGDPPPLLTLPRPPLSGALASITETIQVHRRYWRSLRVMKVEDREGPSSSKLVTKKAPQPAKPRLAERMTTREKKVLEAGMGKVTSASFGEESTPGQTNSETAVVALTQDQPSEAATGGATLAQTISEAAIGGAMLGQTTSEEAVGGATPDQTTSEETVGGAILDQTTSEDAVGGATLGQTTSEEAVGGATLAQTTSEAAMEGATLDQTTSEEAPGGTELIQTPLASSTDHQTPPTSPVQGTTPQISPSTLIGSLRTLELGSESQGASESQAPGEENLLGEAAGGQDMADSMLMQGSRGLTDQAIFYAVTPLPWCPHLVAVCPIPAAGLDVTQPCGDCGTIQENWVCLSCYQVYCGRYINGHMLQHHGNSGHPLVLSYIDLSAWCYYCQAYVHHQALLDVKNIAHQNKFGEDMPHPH
Method: (§1) The compounds were tested against Pan HDAC, HDAC1, HDAC3, and HDAC6 proteins in vitro.

HDAC1 protein = HDAC1 protein (Homo sapiens, UniProt Q13547); test: in vitro HDAC enzyme inhibition assay, HDAC1 (selectivity of HDAC6 over HDAC1); conditions: HDAC6 vs HDAC1
Method: as §1

HDAC3 protein = HDAC3 protein (Homo sapiens, UniProt O15379); test: in vitro HDAC enzyme inhibition assay, HDAC3 (selectivity of HDAC6 over HDAC3); conditions: HDAC6 vs HDAC3
Method: as §1

Chain of HDAC1 protein (Q13547 whole entry): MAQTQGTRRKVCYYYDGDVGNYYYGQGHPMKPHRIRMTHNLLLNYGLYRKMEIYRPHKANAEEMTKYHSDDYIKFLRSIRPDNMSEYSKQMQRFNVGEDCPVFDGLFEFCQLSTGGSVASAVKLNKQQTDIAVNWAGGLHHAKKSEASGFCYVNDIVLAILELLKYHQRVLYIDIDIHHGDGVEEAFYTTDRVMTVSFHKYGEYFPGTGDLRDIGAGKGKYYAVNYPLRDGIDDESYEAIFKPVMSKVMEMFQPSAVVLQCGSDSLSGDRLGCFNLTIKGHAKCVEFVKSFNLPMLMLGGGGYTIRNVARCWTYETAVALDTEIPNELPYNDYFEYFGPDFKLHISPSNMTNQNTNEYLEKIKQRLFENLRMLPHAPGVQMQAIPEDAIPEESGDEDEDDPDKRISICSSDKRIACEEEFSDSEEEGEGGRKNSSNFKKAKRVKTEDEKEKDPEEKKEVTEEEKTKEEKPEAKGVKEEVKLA
Chain of HDAC3 protein (O15379 whole entry): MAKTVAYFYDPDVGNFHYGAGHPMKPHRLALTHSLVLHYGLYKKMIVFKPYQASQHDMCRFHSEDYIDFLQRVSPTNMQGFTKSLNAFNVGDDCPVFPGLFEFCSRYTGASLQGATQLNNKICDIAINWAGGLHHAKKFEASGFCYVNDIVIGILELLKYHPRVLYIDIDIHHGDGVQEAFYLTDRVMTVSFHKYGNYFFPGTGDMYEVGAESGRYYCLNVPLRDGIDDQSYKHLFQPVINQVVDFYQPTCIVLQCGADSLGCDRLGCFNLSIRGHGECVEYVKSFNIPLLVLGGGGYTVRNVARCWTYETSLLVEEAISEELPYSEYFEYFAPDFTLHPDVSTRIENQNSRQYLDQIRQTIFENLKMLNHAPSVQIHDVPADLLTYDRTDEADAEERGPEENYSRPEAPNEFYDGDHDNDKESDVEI
Chain of HDAC3 protein (Q9Y618 395-489 partner limits assumed): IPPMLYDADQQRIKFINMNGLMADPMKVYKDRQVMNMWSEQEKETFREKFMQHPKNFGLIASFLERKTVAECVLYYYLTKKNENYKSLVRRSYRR

Row | SMILES | inhibitory activity against HDAC6 protein (HDAC6 protein) | selectivity for HDAC6 as compared to Pan-HDACs, HDAC1 and HDAC3 (in words) (HDAC6 protein) | times more selective for HDAC6 as compared to HDAC1 (HDAC1 protein) | times more selective for HDAC6 as compared to HDAC3 (HDAC3 protein)
1 | Cc1nnc(NS(=O)(=O)c2ccc(NC(=O)CCCCCCC(=O)NO)cc2)s1 [SP-2-213, N^1-hydroxy-N^8-(4-(N-(5-methyl-1,3,4-thiadiazol-2-yl)sulfamoyl)phenyl) octanediamide] | inhibitors of HDAC6 | selective inhibitors of HDAC6 | about 4 times | about 12 times
2 | Cc1cc(CNCCCCCC(=O)NO)ccc1OCc1cccc(-c2ccccc2)c1C [SP-2-225, N-hydroxy-6-((3-methyl-4-((2-methyl-[1,1′-biphenyl]-3-yl)methoxy)benzyl)amino)hexanamide] | inhibitors of HDAC6 | selective inhibitors of HDAC6 | about 65 times | about 22 times
